What was measured:
[1] = tested on: IL-17A-induced G-CSF production in human normal keratinocyte (NHK); assay: NHK Assay: IL-17A-induced G-CSF production in human normal keratinocytes; format: cell-based; details: 24 h, adult normal human keratinocytes, IL-17A 5 ng/mL, simple average if tested more than once
Outline: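 Adult NHK, 3000-4000 cells/well; rhIL-17A + titrated cpd preincubated 1 h rt, then onto cells. Final: IL-17A 5 ng/mL, DMSO 0.2%, 5% FBS. 24 h, 37° C. G-CSF in supernatant by HTRF vs standard curve; IC50. Viability by CellTiter-Glo vs DMSO.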

[2] = biological target: IL-17A(FLAG-Tagged): IL-17RA(His-Tagged) (Homo sapiens, UniProt Q16552, K93Q); assay: IL-17A(FLAG-Tagged): IL-17RA(His-Tagged) Binding Disruption Eu-HTRF Assay; details: IL-17A/IL-17RA binding disruption, simple average if tested more than once
Outline: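 IC50 comes from a one-site competition fit of the HTRF 665/620 nm ratio. Compound dilutions (2-fold, 22 points) were held 1 h rt with FLAG-tagged IL-17A dimer, then His-tagged IL-17RA plus Eu-cryptate anti-FLAG and D2 anti-His antibodies were added for 2 h rt.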

Chain of UniProt Q16552 (Q16552 with tags, fused parts or gaps K93Q): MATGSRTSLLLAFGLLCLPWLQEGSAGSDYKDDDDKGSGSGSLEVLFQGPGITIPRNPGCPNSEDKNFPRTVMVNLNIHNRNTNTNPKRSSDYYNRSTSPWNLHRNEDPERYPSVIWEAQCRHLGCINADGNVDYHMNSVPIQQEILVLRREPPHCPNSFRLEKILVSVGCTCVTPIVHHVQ

Row | IC50 [2] | SMILES | IC50 ([1]; Homo sapiens, Keratinocyte) | IC50 [1]
1 | 320 nM | Cc1cncc(C(=O)N[C@H](c2cn3ncc([C@H](NC(=O)CCC(F)(F)F)C4CC4)cc3n2)C2CCC(F)(F)CC2)c1 [Example 454, N—((S)-(7-((R)-Cyclopropyl(4,4,4-trifluorobutanamido)methyl)imidazo[1,2-b]pyridazin-2-yl)(4,4-difluorocyclohexyl)methyl)-5-methylnicotinamide] | 3400 nM | 
2 | 3300 nM | CC(C)n1nccc1C(=O)N[C@H](c1cn2ncc(C(NC(=O)CC3(C(F)(F)F)CC3)C3(C#N)CC3)cc2n1)C1CCC(F)(F)CC1 (single isomer, unassigned) [Example 434, N—((S)-(7-((R*)-(1-Cyanocyclopropyl)(2-(1-(trifluoromethyl)cyclopropyl)acetamido)methyl)imidazo[1,2-b]pyridazin-2-yl)(4,4-difluorocyclohexyl)methyl)-1-isopropyl-1H-pyrazole-5-carboxamide] |  | > 20000 nM
3 | 49 nM | O=C(CCC(F)(F)F)N[C@H](c1cnn2cc([C@H](NC(=O)c3conc3C3CCCC3)C3CCC(F)(F)CC3)nc2c1)C1CC1 (stereo in doubt) [Example 117, 3-Cyclopentyl-N—((R)-(7-((S)-cyclopropyl(4,4,4-trifluorobutanamido)methyl)imidazo[1,2-b]pyridazin-2-yl)(4,4-difluorocyclohexyl)methyl)isoxazole-4-carboxamide] | 120 nM | 
4 | 620 nM | Cc1nonc1C(=O)N[C@H](c1cn2ncc([C@H](NC(=O)COCC(F)F)C3CC3)cc2n1)C1CCC(F)(F)CC1 [Example 304, N—((S)-(7-((R)-Cyclopropyl(2-(2,2-difluoroethoxy)acetamido)methyl)imidazo[1,2-b]pyridazin-2-yl)(4,4-difluorocyclohexyl)methyl)-4-methyl-1,2,5-oxadiazole-3-carboxamide] | 910 nM | 
5 | 100 nM | O=C(CCC(F)(F)F)NC(c1cnn2cc([C@@H](NC(=O)c3cnn(CC(F)(F)F)n3)C3CCC(F)(F)CC3)nc2c1)C1CC1 (single isomer, unassigned) [Example 27, N—((S)-(7-((R*)-Cyclopropyl(4,4,4-trifluorobutanamido)methyl)imidazo[1,2-b]pyridazin-2-yl)(4,4-difluorocyclohexyl)methyl)-2-(2,2,2-trifluoroethyl)-2H-1,2,3-triazole-4-carboxamide] | 650 nM | 
6 | 66 nM | O=C(CCC(F)(F)F)N[C@@H](c1cnn2cc([C@@H](NC(=O)c3nonc3OCCF)C3CCC(F)(F)CC3)nc2c1)C1CC1 [Example 384, N—((S)-(7-((R)-Cyclopropyl(4,4,4-trifluorobutanamido)methyl)imidazo[1,2-b]pyridazin-2-yl)(4,4-difluorocyclohexyl)methyl)-4-(2-fluoroethoxy)-1,2,5-oxadiazole-3-carboxamide] | 31 nM | 
7 | 56 nM | O=C(CC1CC(F)(F)C1)N[C@@H](c1cnn2cc([C@@H](NC(=O)c3nonc3OCC(F)F)C3CCC(F)(F)CC3)nc2c1)C1CC1 [Example 389, N—((S)-(7-((R)-Cyclopropyl(2-(3,3-difluorocyclobutyl)acetamido)methyl)imidazo[1,2-b]pyridazin-2-yl)(4,4-difluorocyclohexyl)methyl)-4-(2,2-difluoroethoxy)-1,2,5-oxadiazole-3-carboxamide] | 29 nM | 
8 | 1400 nM | O=C(CC1CC(F)(F)C1)N[C@@H](c1cnn2cc([C@@H](NC(=O)[C@@H]3C[C@H]3C(F)(F)F)C3CCC(F)(F)CC3)nc2c1)C1CC1 (relative stereo) [Example 144, (Trans-1R*,2R*)—N—((S)-(7-((R)-Cyclopropyl(2-(3,3-difluorocyclobutyl)acetamido)methyl)imidazo[1,2-b]pyridazin-2-yl)(4,4-difluorocyclohexyl)methyl)-2-(trifluoromethyl)cyclopropane-1-carboxamide] | 7000 nM | 
